The values below come from patent US8604217B2, “Compound, a process for its preparation, a pharmaceutical composition, use of a compound, a method for modulating or regulating serine/threonine kinases and a serine/threonine kinases modulating agent” (Selvita S.A., priority 2009, dated 2013).

Structures are written as SMILES. pIC50: −log10 of the molar value. Converted amounts (≈) assume the structure as drawn. Bounds are passed on as bounds.

Data set [1] has as its system human erytroblast leukemia HEL-92.1.7 cells. The data set can be described thus: Growth inhibition test (MTS) on HEL-92.1.7 cells. The format is cell-based. As to conditions: 72 hours, read-out: HEL92 ED50. The procedure:
Ten thousand cells of human erytroblast leukemia HEL-92.1.7 were inoculated into each well of a 96-well microplate (manufactured by Corning Corp.) using RPMI 1640 medium (culture medium) containing 10% fetal calf serum (FCS). Next day, a dimethyl sulfoxide (DMSO) solution of each test compound prepared in a concentration of 10 mmol/L was further diluted with culture medium to the desired concentrations (0.1, 0.5, 1, 2.5, 5 and 10 micromol/L), and the diluted solution was added to each well. The individual wells were further cultured in 5% carbon dioxide at 37° C. for 72 hours. After completion of the culture, 10 μl MTS (3-(4,5-Dimethyl-2-thiazolyl)-5-(carboxymethoxyphenyl)-2-(4-sulfophenyl)-2H-tetrazolium, inner salt assay (CellTiter96® AQueous One Solution Cell Proliferation Assay, Promega) was added to each well, and culturing was performed in 5% carbon dioxide at 37° C. for 2 hours. Using a microplate spectrophotometer (Synergy 2 multi-mode microplate reader (BioTek)), the absorbance of each well was measured at 490 nm. The value for cells not incorporated with a test compound was designated as 100%. By comparing these values with the absorbance difference obtained at the well in which each test compound was added, the cell viability (% viability) after treatment with the test compound was calculated.

Data set [2] has as its system human acute lymphocytic leukemia E6.1 Jurkat cells. The data set can be described thus: Growth inhibition test (MTS) on E6.1 Jurkat cells. The format is cell-based. The following applies: 72 hours, read-out: Jurkat ED50.
In data set [3] the test system is human myelomonocytic, biphenotypic leukemia MV4-11 cells. The data set is described as follows: Growth inhibition test (MTS) on MV4-11 cells. The format is cell-based. As to conditions: Homo sapiens, MV4-11, 72 hours, read-out: MV-4-11 ED50. An outline of the steps: MV4-
In data set [4] the test system is human breast adenocarcinoma MCF7 cells. The data set can be described thus: Growth inhibition test (MTS) on MCF7 cells. The format is cell-based. As to conditions: Homo sapiens, MCF7, 72 hours, read-out: MCF-7 ED50. The method, boiled down:
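MCF7 cells seeded in DMEM with 10% FCS, dosed next day at 0.1–10 micromol/L (diluted from 10 mmol/L DMSO stock) and cultured 72 h at 37° C, 5% CO2. MTS added for 2 h, absorbance read at 490 nm; % viability calculated relative to untreated cells as 100%.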

In data set [5] the test system is tumors derived from MV4-11 cells xenografted in nude mice. The data set can be described thus: In vivo anticancer activity, MV4-11 xenograft. As to conditions: QD, PO; for TGI (%): 150 mg/kg, 21 days, MV4-11 xenograft in nude mice; for tumor growth inhibition (in words): after 21 days of treatment. The procedure:
The anticancer activity of compounds 20, 359 and 416 was assessed on tumors derived from MV4-11 cells xenografted in nude mice. Mice were inoculated with 5*10^6 cells and the tumor volume was measured until it reached 100 mm^3. Throughout the whole study tumor volume has been measured (FIG. 2) and tumor growth inhibition (TGI) was calculated.

The nature of data set [6]: Solubility in phosphate buffer pH 7.4. The format is physicochemical. The following applies: aqueous buffer, kinetic from dmso stock, pH 7.4, 24 hours at 37° C., 1% DMSO. An excerpt: In general, tetrahalogenated benzimidazoles are poorly soluble compounds, what renders their chances for successful therapeutic administration in commonly used routes of administration and standard conditions. In contrast to previously published tetrabromobenzimidazoles exemplified by DMAT, certain compounds provided in the application show a markedly increase in water solubility. As solubility is one of the key parameters that influences compound pharmacokinetics, permeability and therefore also activity in vitro and in vivo, improved solubility of the selected compounds is a surprising feature that can lead to improved efficacy in treating PIM kinase associated disease conditions.

The term solubility denotes the concentration that dissolves in the medium under given conditions.

For `NCCCNc1nc2c(Br)c(Br)c(Br)c(Br)c2[nH]1` [Compound 11, N-(3-aminopropyl)-4,5,6,7-tetrabromo-1H-benzo[d]imidazol-2-amine], the pIC50 in data set [1] was 5.24; in data set [2], 5.46; in data set [3] it was 5.99; in data set [4] it was 5.33.
As to `Brc1c(Br)c(Br)c2[nH]c(N3CCNCC3)nc2c1Br` [Compound 20, 4,5,6,7-tetrabromo-2-(piperazin-1-yl)-1H-benzo[d]imidazole], the pIC50 in data set [1] is 5.22; in data set [3], 6.32; in data set [4], 5.61. For the same compound, in data set [5], the “TGI (%)” value is listed as −57.8%. In addition, in data set [5], the “tumor growth inhibition (in words)” value is “most pronounced tumor growth inhibition”. The compound also showed a solubility at 24 h in data set [6] of 81 µM (≈ 41.9 µg/mL).
Turning to `NC1CCC(Nc2nc3c(Br)c(Br)c(Br)c(Br)c3[nH]2)CC1` (stereo not drawn) [Compound 87, N1-(4,5,6,7-tetrabromo-1H-benzo[d]imidazol-2-yl)cyclohexane-1,4-diamine], the pIC50 in data set [1] was 5.04; in data set [2] it was 5.24; in data set [3], 5.38; in data set [4] it was 5.25.
Consider `NC1CCCC(Nc2nc3c(Br)c(Br)c(Br)c(Br)c3[nH]2)C1` (stereo not drawn) [Compound 336, N1-(4,5,6,7-tetrabromo-1H-benzo[d]imidazol-2-yl)cyclohexane-1,3-diamine], for which the pIC50 in data set [3] is 5.59; in data set [4] it was 5.21.
Regarding `Brc1c(Br)c(Br)c2[nH]c(N[C@H]3COC[C@@H]3N3CCCC3)nc2c1Br` [Compound 337, 4,5,6,7-tetrabromo-N-((3R,4R)-tetrahydro-4-(pyrrolidin-1-yl)furan-3-yl)-1H-benzo[d]imidazol-2-amine], the pIC50 is 5.35 in data set [1], 5.61 in data set [3] and 5.75 in data set [4].
Taken in the same sequence, the figures for `Brc1c(Br)c(Br)c2[nH]c(N[C@H]3COC[C@@H]3N3CCCCC3)nc2c1Br` [Compound 338, 4,5,6,7-tetrabromo-N-((3R,4R)-tetrahydro-4-(piperidin-1-yl)furan-3-yl)-1H-benzo[d]imidazol-2-amine] were 5.25, 5.48 and 5.60.
Turning to `NCc1ccccc1CNc1nc2c(Br)c(Br)c(Br)c(Br)c2[nH]1` [Compound 349, N-(2-(aminomethyl)benzyl)-4,5,6,7-tetrabromo-1H-benzo[d]imidazol-2-amine], the pIC50 in data set [1] is 5.22; in data set [3], 5.80; in data set [4] it was 5.56.
The like results for `CN1CCCC(Nc2nc3c(Br)c(Br)c(Br)c(Br)c3[nH]2)CC1` (stereo not drawn) [Compound 358, 4,5,6,7-tetrabromo-N-(1-methylazepan-4-yl)-1H-benzo[d]imidazol-2-amine] were, in that order, 5.12, 6.00 and 5.52.
In the case of `CC(C)n1c(N2CCNCC2)nc2c(Br)c(Br)c(Br)c(Br)c21` [Compound 359, 4,5,6,7-tetrabromo-1-isopropyl-2-(piperazin-1-yl)-1H-benzo[d]imidazole], the pIC50 in data set [1] is 5.41; in data set [3], 6.22; in data set [4], 5.80. Also, the “TGI (%)” value in data set [5] is recorded as −84.7%. Also, the “tumor growth inhibition (in words)” value in data set [5] is “most pronounced tumor growth inhibition”.
On to `C[C@@H]1CN(c2nc3c(Br)c(Br)c(Br)c(Br)c3[nH]2)[C@@H](C)CN1` [Compound 364, 4,5,6,7-tetrabromo-2-((2S,5R)-2,5-dimethylpiperazin-1-yl)-1H-benzo[d]imidazole], for which the pIC50 is 5.25 in data set [1], 5.71 in data set [3] and 5.80 in data set [4].
Taken in the same sequence, the figures for `Brc1c(Br)c(Br)c2[nH]c(NC3CCCNCC3)nc2c1Br` (stereo not drawn) [Compound 366, N-(azepan-4-yl)-4,5,6,7-tetrabromo-1H-benzo[d]imidazol-2-amine] were 5.29, 6.22 and 5.67.
The like results for `CC(C)NC1CCCCC1Nc1nc2c(Br)c(Br)c(Br)c(Br)c2[nH]1` (stereo not drawn) [Compound 369, N1-(4,5,6,7-tetrabromo-1H-benzo[d]imidazol-2-yl)-N2-isopropylcyclohexane-1,2-diamine] were, in that order, 5.21, 5.89 and 5.80.
For the compound `Brc1c(Br)c(Br)c2c(nc(N3CCNCC3)n2Cc2ccccc2)c1Br` [Compound 374, 1-benzyl-4,5,6,7-tetrabromo-2-(piperazin-1-yl)-1H-benzo[d]imidazole], the values for the pIC50 in data set [1], in data set [3] and in data set [4] were 5.52, 5.89 and 5.82, respectively.
Taken in the same sequence, the figures for `CN(C)C1CCCN(c2nc3c(Br)c(Br)c(Br)c(Br)c3[nH]2)C1` (stereo not drawn) [Compound 378, 1-(4,5,6,7-tetrabromo-1H-benzo[d]imidazol-2-yl)-N,N-dimethylpiperidin-3-amine] were 5.04, 5.21 and 5.21.
Taken in the same sequence, the figures for `Brc1c(Br)c(Br)c2[nH]c(N3CCC(C4CCNCC4)CC3)nc2c1Br` [Compound 386, 4,5,6,7-tetrabromo-2-(4-(piperidin-4-yl)piperidin-1-yl)-1H-benzo[d]imidazole] were 5.21, 5.48 and 5.61.
The like results for `CCCCCNC1CCCCC1Nc1nc2c(Br)c(Br)c(Br)c(Br)c2[nH]1` (stereo not drawn) [Compound 413, N1-(4,5,6,7-tetrabromo-1H-benzo[d]imidazol-2-yl)-N2-pentylcyclohexane-1,2-diamine] were, in that order, 5.48, 5.81 and 5.89.
`CCCn1c(N2CCNCC2)nc2c(Br)c(Br)c(Br)c(Br)c21` [Compound 417, 4,5,6,7-tetrabromo-2-(piperazin-1-yl)-1-propyl-1H-benzo[d]imidazole]: the values for the pIC50 in data set [1], in data set [3] and in data set [4] were 5.48, 6.25 and 5.60, respectively.
`Brc1c(Br)c(Br)c2[nH]c(NC3CCNCC3)nc2c1Br` [Compound 435, 4,5,6,7-tetrabromo-N-(piperidin-4-yl)-1H-benzo[d]imidazol-2-amine]: the pIC50 is 5.24 in data set [1], 6.17 in data set [3] and 5.46 in data set [4].
As to `CCn1c(N2CCN(CCN3CCNCC3)CC2)nc2c(Br)c(Br)c(Br)c(Br)c21` [Compound 441, 4,5,6,7-tetrabromo-1-ethyl-2-(4-(2-(piperazin-1-yl)ethyl)piperazin-1-yl)-1H-benzo[d]imidazole], the results for the pIC50 in data set [1], in data set [3] and in data set [4] were 6.22, 6.15 and 5.89, respectively.
Taken in the same sequence, the figures for `CCn1c(N2CCN(CCCN3CCOCC3)CC2)nc2c(Br)c(Br)c(Br)c(Br)c21` [Compound 450] were 6.10, 6.22 and 5.70.
With `Brc1c(Br)c(Br)c2c(Br)n[nH]c2c1Br` [Compound K64, 3,4,5,6,7-pentabromo-1H-indazole, reference compound], the pIC50 in data set [2] and in data set [3] was < 5.00 in each case.
For the compound `CN(C)c1nc2c(Br)c(Br)c(Br)c(Br)c2n1CC(=O)O` [Compound K66, 1-carboxymethyl-2-dimethylamino-4,5,6,7-tetrabromo-benzimidazole, reference compound], the pIC50 in data set [2] and in data set [3] was < 5.00 throughout.
Turning to `CN(C)c1nc2c(Br)c(Br)c(Br)c(Br)c2[nH]1` [DMAT, 2-dimethylamino-4,5,6,7-tetrabromo-1H-benzimidazole, reference compound], the values for the pIC50 in data set [2], in data set [3] and in data set [4] were 5.09, 5.50 and < 5.00, respectively. Besides, the solubility at 24 h in data set [6] was < 10 µM.
On to `Brc1c(Br)c(Br)c2[nH]nnc2c1Br` [TBB, 4,5,6,7-tetrabromo-1Hbenzotriazole, reference compound], for which the pIC50 in data set [2] and in data set [3] was < 5.00 throughout.
With `Brc1c(Br)c(Br)c2[nH]cnc2c1Br` [TBI, 4,5,6,7-tetrabromo-1H-benzimidazole, reference compound], the pIC50 in data set [2] and in data set [3] was < 5.00 in each case.
